Measurements from ChEMBL document CHEMBL3727342, “Compounds and methods for kinase modulation, and indications therefor” (2012).

Target: Serine/threonine-protein kinase B-raf (Homo sapiens, UniProt P15056, V600E)
Assay: Inhibition of B-raf V600E mutant (unknown origin) expressed in Sf9 cells using biotin-MEK1substrate incubated for 1 hr

Sequence of Serine/threonine-protein kinase B-raf (Homo sapiens, UniProt P15056, V600E) (P15056 2-766 V600E limits assumed): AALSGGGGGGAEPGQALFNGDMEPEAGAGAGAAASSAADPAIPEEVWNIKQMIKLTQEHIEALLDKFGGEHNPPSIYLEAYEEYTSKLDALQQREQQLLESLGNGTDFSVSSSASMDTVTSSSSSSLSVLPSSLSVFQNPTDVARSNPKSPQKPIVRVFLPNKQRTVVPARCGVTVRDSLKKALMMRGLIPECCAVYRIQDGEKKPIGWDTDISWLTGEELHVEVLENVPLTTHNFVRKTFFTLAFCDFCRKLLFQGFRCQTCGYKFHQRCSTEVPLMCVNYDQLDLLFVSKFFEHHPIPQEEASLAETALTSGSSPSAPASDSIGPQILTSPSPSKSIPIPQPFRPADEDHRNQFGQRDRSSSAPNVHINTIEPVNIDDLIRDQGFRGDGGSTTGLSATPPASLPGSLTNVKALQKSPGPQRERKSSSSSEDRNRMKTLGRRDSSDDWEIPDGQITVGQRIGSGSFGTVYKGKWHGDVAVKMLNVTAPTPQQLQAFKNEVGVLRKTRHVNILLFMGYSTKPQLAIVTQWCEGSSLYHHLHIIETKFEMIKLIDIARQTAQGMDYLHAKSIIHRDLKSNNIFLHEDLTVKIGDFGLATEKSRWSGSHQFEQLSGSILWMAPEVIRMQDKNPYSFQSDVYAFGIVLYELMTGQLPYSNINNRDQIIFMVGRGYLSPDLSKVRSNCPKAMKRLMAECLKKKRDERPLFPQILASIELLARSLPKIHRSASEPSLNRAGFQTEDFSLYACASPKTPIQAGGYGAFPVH

IC50, ≤ 10 µM:
O=C(c1cccc(NS(=O)(=O)c2ccc(F)cc2F)c1F)c1c[nH]c2ncncc12, CN(C)S(=O)(=O)Nc1ccc(F)c(C(=O)c2c[nH]c3ncncc23)c1F, O=C(c1c(F)ccc(NS(=O)(=O)c2ccc(F)cc2)c1F)c1c[nH]c2ncncc12, CC(C)CS(=O)(=O)Nc1cccc(C(=O)c2c[nH]c3ncncc23)c1F, O=C(c1c(F)ccc(NS(=O)(=O)c2ccc(F)cc2F)c1F)c1c[nH]c2ncncc12, O=C(c1c(F)ccc(NS(=O)(=O)CCC(F)(F)F)c1F)c1c[nH]c2ncncc12, O=C(c1c(F)ccc(NS(=O)(=O)C2CCC2)c1F)c1c[nH]c2ncncc12, O=C(c1cccc(NS(=O)(=O)c2ccc(F)cc2)c1F)c1c[nH]c2ncncc12, CCC(C)S(=O)(=O)Nc1cccc(C(=O)c2c[nH]c3ncncc23)c1F (centres undefined)

Target: Serine/threonine-protein kinase B-raf (Homo sapiens, UniProt P15056)
Sequence (P15056 whole entry): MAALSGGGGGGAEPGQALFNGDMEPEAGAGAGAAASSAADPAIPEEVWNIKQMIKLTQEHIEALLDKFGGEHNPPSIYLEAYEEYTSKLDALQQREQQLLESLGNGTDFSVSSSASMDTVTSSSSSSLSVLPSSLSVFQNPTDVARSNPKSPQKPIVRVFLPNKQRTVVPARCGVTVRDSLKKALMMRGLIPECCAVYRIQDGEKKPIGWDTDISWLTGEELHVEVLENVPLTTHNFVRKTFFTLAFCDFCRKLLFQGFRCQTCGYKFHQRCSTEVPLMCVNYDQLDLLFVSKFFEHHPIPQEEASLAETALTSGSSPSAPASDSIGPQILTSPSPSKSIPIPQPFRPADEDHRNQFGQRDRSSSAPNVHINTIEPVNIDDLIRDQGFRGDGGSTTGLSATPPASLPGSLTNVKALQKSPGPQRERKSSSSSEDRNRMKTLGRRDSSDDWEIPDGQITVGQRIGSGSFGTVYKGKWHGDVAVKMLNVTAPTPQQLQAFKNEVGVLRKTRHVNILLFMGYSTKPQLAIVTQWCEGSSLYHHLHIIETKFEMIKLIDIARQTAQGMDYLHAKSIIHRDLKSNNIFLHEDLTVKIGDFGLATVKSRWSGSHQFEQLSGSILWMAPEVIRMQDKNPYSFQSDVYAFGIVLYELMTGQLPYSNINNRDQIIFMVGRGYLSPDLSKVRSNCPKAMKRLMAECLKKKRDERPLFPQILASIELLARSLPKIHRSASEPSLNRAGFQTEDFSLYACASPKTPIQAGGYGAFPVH
Assay: Inhibition of N-terminal GST-tagged human recombinant B-Raf (416 to end residues) using biotin-MEK1 substrate incubated for 1 hr

IC50, ≤ 10 µM:
O=C(c1c(F)ccc(NS(=O)(=O)c2ccccc2F)c1F)c1c[nH]c2ncncc12, O=C(c1cccc(NS(=O)(=O)c2ccc(C(F)(F)F)cc2)c1F)c1c[nH]c2ncncc12, COc1ncnc2[nH]cc(C(=O)c3c(F)ccc(NS(=O)(=O)c4ccc(C(F)(F)F)cc4)c3F)c12, CCCc1ccc(S(=O)(=O)Nc2ccc(F)c(C(=O)c3c[nH]c4ncncc34)c2F)cc1, CCCS(=O)(=O)Nc1cccc(C(=O)c2c[nH]c3ncnc(OC)c23)c1F, O=C(c1c(F)ccc(NS(=O)(=O)c2cc(F)ccc2F)c1F)c1c[nH]c2ncncc12, O=C(c1cccc(NS(=O)(=O)c2ccccc2F)c1F)c1c[nH]c2ncncc12, O=C(c1cccc(NS(=O)(=O)c2cccc(F)c2)c1F)c1c[nH]c2ncncc12, O=C(c1cccc(NS(=O)(=O)c2cc(F)ccc2F)c1F)c1c[nH]c2ncncc12, COc1ncnc2[nH]cc(C(=O)c3cccc(NS(=O)(=O)c4ccc(C(F)(F)F)cc4)c3F)c12, O=C(c1c(F)ccc(NS(=O)(=O)c2cccc(F)c2)c1F)c1c[nH]c2ncncc12

Target: Vascular endothelial growth factor receptor 2 (Homo sapiens, UniProt P35968)
Sequence (P35968 whole entry): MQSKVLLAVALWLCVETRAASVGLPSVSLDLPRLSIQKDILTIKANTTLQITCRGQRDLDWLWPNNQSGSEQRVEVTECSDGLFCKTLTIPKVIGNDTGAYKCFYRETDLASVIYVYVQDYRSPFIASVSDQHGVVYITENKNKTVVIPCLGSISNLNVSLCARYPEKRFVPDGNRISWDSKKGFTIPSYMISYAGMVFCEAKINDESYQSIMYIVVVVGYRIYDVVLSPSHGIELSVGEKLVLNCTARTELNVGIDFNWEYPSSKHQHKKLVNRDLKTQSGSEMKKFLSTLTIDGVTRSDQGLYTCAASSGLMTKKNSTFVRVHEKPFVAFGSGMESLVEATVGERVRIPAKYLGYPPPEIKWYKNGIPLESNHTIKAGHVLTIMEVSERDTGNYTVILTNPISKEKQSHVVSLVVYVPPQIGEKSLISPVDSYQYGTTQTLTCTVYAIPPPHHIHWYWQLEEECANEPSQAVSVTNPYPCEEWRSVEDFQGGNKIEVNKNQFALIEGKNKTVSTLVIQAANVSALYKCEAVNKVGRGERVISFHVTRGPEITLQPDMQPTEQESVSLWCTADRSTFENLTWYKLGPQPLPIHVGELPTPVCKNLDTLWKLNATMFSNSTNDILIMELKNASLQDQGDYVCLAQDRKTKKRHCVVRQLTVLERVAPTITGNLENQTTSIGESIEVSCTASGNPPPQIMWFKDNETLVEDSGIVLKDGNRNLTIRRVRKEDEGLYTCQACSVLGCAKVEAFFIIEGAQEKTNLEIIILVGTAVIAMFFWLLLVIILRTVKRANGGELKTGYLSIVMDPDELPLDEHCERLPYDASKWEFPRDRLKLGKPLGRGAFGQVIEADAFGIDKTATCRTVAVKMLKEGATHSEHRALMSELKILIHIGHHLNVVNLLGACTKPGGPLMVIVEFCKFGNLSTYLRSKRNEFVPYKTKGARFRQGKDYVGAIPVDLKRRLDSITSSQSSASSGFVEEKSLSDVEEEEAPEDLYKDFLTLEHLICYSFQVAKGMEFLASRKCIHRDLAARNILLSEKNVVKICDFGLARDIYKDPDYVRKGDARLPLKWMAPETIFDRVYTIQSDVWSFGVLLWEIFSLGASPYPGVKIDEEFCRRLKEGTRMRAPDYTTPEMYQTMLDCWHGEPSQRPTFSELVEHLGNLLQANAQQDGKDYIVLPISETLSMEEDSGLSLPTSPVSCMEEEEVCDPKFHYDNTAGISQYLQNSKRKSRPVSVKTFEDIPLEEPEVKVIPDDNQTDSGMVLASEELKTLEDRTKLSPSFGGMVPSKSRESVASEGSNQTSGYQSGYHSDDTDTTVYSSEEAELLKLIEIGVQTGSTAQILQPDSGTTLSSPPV
Assay: Inhibition of KDR (unknown origin) by FRET assay

IC50, ≤ 10 µM:
O=C(c1c(F)ccc(NS(=O)(=O)c2ccccc2F)c1F)c1c[nH]c2ncncc12, CCCS(=O)(=O)Nc1cccc(C(=O)c2c[nH]c3ncnc(OC)c23)c1F, O=C(c1c(F)ccc(NS(=O)(=O)c2cc(F)ccc2F)c1F)c1c[nH]c2ncncc12, O=C(c1cccc(NS(=O)(=O)c2ccc(F)cc2F)c1F)c1c[nH]c2ncncc12, O=C(c1cccc(NS(=O)(=O)c2ccccc2F)c1F)c1c[nH]c2ncncc12, CN(C)S(=O)(=O)Nc1ccc(F)c(C(=O)c2c[nH]c3ncncc23)c1F, O=C(c1cccc(NS(=O)(=O)c2cc(F)ccc2F)c1F)c1c[nH]c2ncncc12, O=C(c1c(F)ccc(NS(=O)(=O)c2ccc(F)cc2F)c1F)c1c[nH]c2ncncc12, COc1ncnc2[nH]cc(C(=O)c3cccc(NS(=O)(=O)c4ccc(C(F)(F)F)cc4)c3F)c12, O=C(c1c(F)ccc(NS(=O)(=O)C2CCC2)c1F)c1c[nH]c2ncncc12, CCC(C)S(=O)(=O)Nc1cccc(C(=O)c2c[nH]c3ncncc23)c1F (centres undefined), CCCC(C)S(=O)(=O)Nc1cccc(C(=O)c2c[nH]c3ncncc23)c1F (centres undefined)

Target: RAF proto-oncogene serine/threonine-protein kinase (Homo sapiens, UniProt P04049)
Sequence (P04049 whole entry): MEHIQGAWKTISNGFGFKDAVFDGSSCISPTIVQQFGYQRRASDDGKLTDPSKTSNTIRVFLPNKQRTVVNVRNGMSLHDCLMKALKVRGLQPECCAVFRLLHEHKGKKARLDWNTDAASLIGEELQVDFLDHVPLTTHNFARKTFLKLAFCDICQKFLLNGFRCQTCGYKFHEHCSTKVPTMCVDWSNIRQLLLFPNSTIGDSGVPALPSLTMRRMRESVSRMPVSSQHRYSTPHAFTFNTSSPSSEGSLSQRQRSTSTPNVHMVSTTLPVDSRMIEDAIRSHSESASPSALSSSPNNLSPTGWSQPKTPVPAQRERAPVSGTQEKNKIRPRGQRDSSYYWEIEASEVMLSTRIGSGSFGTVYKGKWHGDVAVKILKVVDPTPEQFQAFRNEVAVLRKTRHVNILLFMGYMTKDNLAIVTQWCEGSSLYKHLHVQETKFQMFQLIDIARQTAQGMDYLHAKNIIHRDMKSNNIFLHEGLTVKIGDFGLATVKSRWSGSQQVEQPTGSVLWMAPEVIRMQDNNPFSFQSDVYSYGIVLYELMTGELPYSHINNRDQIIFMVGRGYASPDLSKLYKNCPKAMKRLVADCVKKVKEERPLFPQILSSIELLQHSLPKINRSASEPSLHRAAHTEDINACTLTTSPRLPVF
Assay: Inhibition of human C-raf using biotin-MEK1 substrate incubated for 1 hr

IC50, ≤ 10 µM:
O=C(c1c(F)ccc(NS(=O)(=O)c2ccccc2F)c1F)c1c[nH]c2ncncc12, O=C(c1cccc(NS(=O)(=O)c2ccc(C(F)(F)F)cc2)c1F)c1c[nH]c2ncncc12, COc1ncnc2[nH]cc(C(=O)c3c(F)ccc(NS(=O)(=O)c4ccc(C(F)(F)F)cc4)c3F)c12, CCCc1ccc(S(=O)(=O)Nc2ccc(F)c(C(=O)c3c[nH]c4ncncc34)c2F)cc1, CCCS(=O)(=O)Nc1cccc(C(=O)c2c[nH]c3ncnc(OC)c23)c1F, O=C(c1c(F)ccc(NS(=O)(=O)c2cc(F)ccc2F)c1F)c1c[nH]c2ncncc12, O=C(c1cccc(NS(=O)(=O)c2ccc(F)cc2F)c1F)c1c[nH]c2ncncc12, O=C(c1cccc(NS(=O)(=O)c2ccccc2F)c1F)c1c[nH]c2ncncc12, O=C(c1cccc(NS(=O)(=O)c2cccc(F)c2)c1F)c1c[nH]c2ncncc12, CN(C)S(=O)(=O)Nc1ccc(F)c(C(=O)c2c[nH]c3ncncc23)c1F, O=C(c1cccc(NS(=O)(=O)c2cc(F)ccc2F)c1F)c1c[nH]c2ncncc12, O=C(c1c(F)ccc(NS(=O)(=O)c2ccc(F)cc2)c1F)c1c[nH]c2ncncc12, CC(C)CS(=O)(=O)Nc1cccc(C(=O)c2c[nH]c3ncncc23)c1F, O=C(c1c(F)ccc(NS(=O)(=O)c2ccc(F)cc2F)c1F)c1c[nH]c2ncncc12, COc1ncnc2[nH]cc(C(=O)c3cccc(NS(=O)(=O)c4ccc(C(F)(F)F)cc4)c3F)c12, O=C(c1c(F)ccc(NS(=O)(=O)CCC(F)(F)F)c1F)c1c[nH]c2ncncc12, O=C(c1c(F)ccc(NS(=O)(=O)C2CCC2)c1F)c1c[nH]c2ncncc12, O=C(c1c(F)ccc(NS(=O)(=O)c2cccc(F)c2)c1F)c1c[nH]c2ncncc12

Target: Mast/stem cell growth factor receptor Kit (Homo sapiens, UniProt P10721)
Sequence (P10721 whole entry): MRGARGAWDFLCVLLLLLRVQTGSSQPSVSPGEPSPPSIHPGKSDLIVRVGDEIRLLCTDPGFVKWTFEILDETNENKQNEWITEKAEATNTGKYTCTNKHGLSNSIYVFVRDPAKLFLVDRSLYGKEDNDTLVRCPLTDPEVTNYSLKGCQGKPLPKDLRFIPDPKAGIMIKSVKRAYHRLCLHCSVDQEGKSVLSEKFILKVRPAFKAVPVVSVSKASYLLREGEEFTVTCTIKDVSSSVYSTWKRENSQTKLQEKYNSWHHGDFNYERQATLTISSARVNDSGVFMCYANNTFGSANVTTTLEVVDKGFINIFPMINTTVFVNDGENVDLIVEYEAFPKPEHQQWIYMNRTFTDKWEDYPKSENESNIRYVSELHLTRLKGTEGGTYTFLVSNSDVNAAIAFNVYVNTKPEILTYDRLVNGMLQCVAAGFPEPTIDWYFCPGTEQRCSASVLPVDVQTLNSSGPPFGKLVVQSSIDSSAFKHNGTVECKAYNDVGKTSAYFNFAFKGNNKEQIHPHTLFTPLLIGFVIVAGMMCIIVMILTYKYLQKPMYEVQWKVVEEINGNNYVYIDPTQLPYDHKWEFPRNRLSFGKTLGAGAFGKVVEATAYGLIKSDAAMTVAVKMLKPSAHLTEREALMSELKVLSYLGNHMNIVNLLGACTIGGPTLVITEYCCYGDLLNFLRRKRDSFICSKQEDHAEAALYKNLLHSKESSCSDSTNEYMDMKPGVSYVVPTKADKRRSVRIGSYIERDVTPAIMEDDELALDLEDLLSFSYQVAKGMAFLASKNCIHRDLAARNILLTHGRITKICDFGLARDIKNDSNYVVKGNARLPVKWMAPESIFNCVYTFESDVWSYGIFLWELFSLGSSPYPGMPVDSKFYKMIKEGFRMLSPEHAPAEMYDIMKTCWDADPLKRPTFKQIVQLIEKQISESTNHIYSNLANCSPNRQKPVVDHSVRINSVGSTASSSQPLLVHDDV
Assay: Inhibition of Kit (unknown origin) expressed in Escherichia coli

IC50, ≤ 10 µM:
CCCS(=O)(=O)Nc1cccc(C(=O)c2c[nH]c3ncnc(OC)c23)c1F, O=C(c1c(F)ccc(NS(=O)(=O)c2cc(F)ccc2F)c1F)c1c[nH]c2ncncc12, O=C(c1cccc(NS(=O)(=O)c2cc(F)ccc2F)c1F)c1c[nH]c2ncncc12, O=C(c1c(F)ccc(NS(=O)(=O)CCC(F)(F)F)c1F)c1c[nH]c2ncncc12, CCC(C)S(=O)(=O)Nc1cccc(C(=O)c2c[nH]c3ncncc23)c1F (centres undefined), CCCC(C)S(=O)(=O)Nc1cccc(C(=O)c2c[nH]c3ncncc23)c1F (centres undefined)

Target: T1, Serine/threonine-protein kinase A-Raf (Homo sapiens, UniProt P10398)
T1 sequence (P10398 whole entry): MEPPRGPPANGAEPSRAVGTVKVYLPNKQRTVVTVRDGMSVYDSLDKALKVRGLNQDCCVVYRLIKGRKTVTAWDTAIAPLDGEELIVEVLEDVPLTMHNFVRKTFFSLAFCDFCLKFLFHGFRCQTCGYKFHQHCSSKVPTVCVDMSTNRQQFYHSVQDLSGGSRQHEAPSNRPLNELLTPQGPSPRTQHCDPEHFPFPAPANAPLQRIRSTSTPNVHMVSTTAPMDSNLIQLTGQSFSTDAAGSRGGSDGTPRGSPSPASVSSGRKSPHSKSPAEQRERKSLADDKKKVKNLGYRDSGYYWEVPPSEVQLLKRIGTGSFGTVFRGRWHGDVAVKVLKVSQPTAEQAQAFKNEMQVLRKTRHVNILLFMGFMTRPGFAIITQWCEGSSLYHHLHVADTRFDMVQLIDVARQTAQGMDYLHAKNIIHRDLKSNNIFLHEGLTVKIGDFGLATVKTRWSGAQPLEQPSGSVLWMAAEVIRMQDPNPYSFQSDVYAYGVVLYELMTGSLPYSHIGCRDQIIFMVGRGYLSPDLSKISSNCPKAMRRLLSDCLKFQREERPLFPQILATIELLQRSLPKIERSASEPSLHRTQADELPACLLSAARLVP
Assay: Inhibition of A-Raf (unknown origin)

IC50, ≤ 10 µM:
O=C(c1cccc(NS(=O)(=O)c2ccc(C(F)(F)F)cc2)c1F)c1c[nH]c2ncncc12, CCCc1ccc(S(=O)(=O)Nc2ccc(F)c(C(=O)c3c[nH]c4ncncc34)c2F)cc1

Target: Proto-oncogene tyrosine-protein kinase Src (Homo sapiens, UniProt P12931)
Sequence (P12931 2-536 limits assumed): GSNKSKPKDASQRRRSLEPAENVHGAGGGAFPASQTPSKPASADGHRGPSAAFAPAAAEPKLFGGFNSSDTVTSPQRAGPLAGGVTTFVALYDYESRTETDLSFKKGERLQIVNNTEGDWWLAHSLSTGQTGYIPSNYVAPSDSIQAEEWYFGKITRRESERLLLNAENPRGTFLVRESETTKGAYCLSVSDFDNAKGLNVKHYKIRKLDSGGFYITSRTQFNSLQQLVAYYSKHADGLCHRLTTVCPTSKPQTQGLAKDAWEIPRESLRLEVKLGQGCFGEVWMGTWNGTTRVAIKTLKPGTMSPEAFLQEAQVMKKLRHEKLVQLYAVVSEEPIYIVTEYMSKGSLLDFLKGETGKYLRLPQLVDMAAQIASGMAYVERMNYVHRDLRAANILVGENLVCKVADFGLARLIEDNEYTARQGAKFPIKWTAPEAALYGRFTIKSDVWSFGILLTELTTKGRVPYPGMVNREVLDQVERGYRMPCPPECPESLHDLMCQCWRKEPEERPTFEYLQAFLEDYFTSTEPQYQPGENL
Assay: Inhibition of Src (unknown origin) expressed in Escherichia coli using biotin-(E4Y)3 substrate

IC50, ≤ 10 µM:
COc1ncnc2[nH]cc(C(=O)c3c(F)ccc(NS(=O)(=O)c4ccc(C(F)(F)F)cc4)c3F)c12, CCCS(=O)(=O)Nc1cccc(C(=O)c2c[nH]c3ncnc(OC)c23)c1F, O=C(c1cccc(NS(=O)(=O)c2ccccc2F)c1F)c1c[nH]c2ncncc12, O=C(c1cccc(NS(=O)(=O)c2cc(F)ccc2F)c1F)c1c[nH]c2ncncc12

Target: Macrophage colony-stimulating factor 1 receptor (Homo sapiens, UniProt P07333)
Assay: Inhibition of Fms (unknown origin)

IC50, ≤ 10 µM:
O=C(c1c(F)ccc(NS(=O)(=O)c2ccc(F)cc2F)c1F)c1c[nH]c2ncncc12, O=S(=O)(Nc1ccc(F)c(C(O)c2c[nH]c3ncnc(C4CC4)c23)c1F)c1ccc(C(F)(F)F)cc1 (centres undefined)
